# Values quoted from earlier work, collected in patent US20090325807A1, “Method of Improving Plant Growth” (Bayer Cropscience AG, priority 2004, published 2009).
# Tested on: cucumis melo L.
# Settings: in the absence of insects
smiles,measurement,value
"O=[N+]([O-])NC1=NCCN1Cc1ccc(Cl)nc1 [imidacloprid, Imidacloprid]",growth effect,no growth effect
